≈ marks a conversion by molar mass, not a printed value.
What was measured:
Format in all cases: functional
Aspergillus fumigatus [1] = test: Antifungal activity against Aspergillus fumigatus HIC 6094 assessed as growth inhibition at 37 degC for 48 hr; conditions: HIC 6094, 48 h
Aspergillus fumigatus [2] = test: Antifungal activity against Aspergillus fumigatus HIC 6094 assessed as growth inhibition at 100 ug/disc at 37 degC for 48 hr; conditions: HIC 6094, 48 h, read-out: IZ
Candida albicans [3] = test: Antifungal activity against Candida albicans ATCC 10231 assessed as growth inhibition at 37 degC for 48 hr; conditions: ATCC 10231, 48 h
Candida albicans [4] = test: Antifungal activity against Candida albicans ATCC 10231 assessed as growth inhibition at 100 ug/disk at 37 degC for 48 hr; conditions: ATCC 10231, 48 h, read-out: IZ
Trichophyton rubrum [5] = test: Antifungal activity against Trichophyton rubrum IFO 9185 assessed as growth inhibition at 37 degC for 48 hr; conditions: IFO 9185, 48 h
[6] = system: Trichophyton mentagrophytes; test: Antifungal activity against Trichophyton mentagrophytes IFO 40996 assessed as growth inhibition at 37 degC for 48 hr; conditions: IFO 40996, 48 h
Trichophyton rubrum [7] = test: Antifungal activity against Trichophyton rubrum IFO 9185 assessed as growth inhibition at 100 ug/disk at 37 degC for 48 hr; conditions: IFO 9185, 48 h, read-out: IZ
[8] = system: Trichophyton mentagrophytes; test: Antifungal activity against Trichophyton mentagrophytes IFO 40996 assessed as growth inhibition at 100 ug/disc at 37 degC for 48 hr; conditions: IFO 40996, 48 h, read-out: IZ

C[C@@H]1[C@H](O)[C@@H](C)/C=C/C=C/C=C/C=C/C=C/C=C/C=C/[C@H](O[C@@H]2O[C@H](C)[C@@H](O)[C@H](N)[C@@H]2O)C[C@@H]2O[C@](O)(C[C@@H](O)C[C@@H](O)[C@H](O)CC[C@@H](O)C[C@@H](O)CC(=O)O[C@H]1C)C[C@H](O)[C@H]2C(=O)O [AMPHOTERICIN B]
MBC (Aspergillus fumigatus [1]): 6.25 µg/mL (≈ 6.76 µM)
MIC (Aspergillus fumigatus [1]): 3.12 µg/mL (≈ 3.38 µM)
zone of inhibition at 100 µg/disc (Aspergillus fumigatus [2]): 20 mm
MBC (Candida albicans [3]): 12.5 µg/mL (≈ 13.5 µM)
MIC (Candida albicans [3]): 6.25 µg/mL (≈ 6.76 µM)
zone of inhibition at 100 µg/disc (Candida albicans [4]): 25 mm
MBC (Trichophyton rubrum [5]): 12.5 µg/mL (≈ 13.5 µM)
MIC (Trichophyton rubrum [5]): 3.12 µg/mL (≈ 3.38 µM)
MBC [6]: 12.5 µg/mL (≈ 13.5 µM)
MIC [6]: 3.12 µg/mL (≈ 3.38 µM)
zone of inhibition at 100 µg/disc (Trichophyton rubrum [7]): 20 mm
zone of inhibition at 100 µg/disc [8]: 18 mm

— ChEMBL document CHEMBL3045223, “Synthesis, nematicidal and antimicrobial properties of Bis-[4-methoxy-3-[3-(4-fluorophenyl)-6-(4-methylphenyl)-2(aryl)-tetrahydro-2H-pyrazolo[3,4-d]thiazol-5-yl]phenyl]methanes” (2009)
